According to patent US20080221060A1, “Therapeutic Compounds” (priority 2004, published 2008):
Read-outs that look alike come from different tables or passages of the source.

How the values were obtained:
[1] = biological target: adenosine receptors (rat striatal membranes, [3H]-CGS21680) (Rattus norvegicus, UniProt P30543); assay: Ki from displacement of [3H]-CGS21680 in rat striatal membranes at pH 5.5 and pH 7.4; type: binding; design: from tissue; host or cells: rat striatum (membranes); settings: 2 nM [3H]-CGS21680, 90 minutes at 22° C.
adenosine receptors (rat striatal membranes, [3H]-CGS21680), sequence (P30543 whole entry): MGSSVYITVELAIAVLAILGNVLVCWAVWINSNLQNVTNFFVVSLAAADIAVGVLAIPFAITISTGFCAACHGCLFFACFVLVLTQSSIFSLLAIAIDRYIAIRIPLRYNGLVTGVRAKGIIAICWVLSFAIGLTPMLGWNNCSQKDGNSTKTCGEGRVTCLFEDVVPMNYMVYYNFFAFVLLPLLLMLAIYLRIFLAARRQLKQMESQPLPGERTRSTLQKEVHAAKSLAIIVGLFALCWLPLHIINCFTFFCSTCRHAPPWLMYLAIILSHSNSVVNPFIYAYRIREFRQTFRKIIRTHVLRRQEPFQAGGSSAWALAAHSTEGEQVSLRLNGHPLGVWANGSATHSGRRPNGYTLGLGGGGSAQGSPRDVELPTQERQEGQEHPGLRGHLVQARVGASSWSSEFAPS

[2] = tested on: chronic constriction injury model of neuropathic pain; assay: static allodynia, chronic constriction injury of the rat sciatic nerve; type: in vivo; settings: rat CCI, p.o., dose response
Description: The total dose administered is shown on the horizontal axis, and the paw withdrawal threshold (PWT) on the vertical axis.

[3] = pH 5.5, read-out: (Ki) nM (pH 5.5)
[4] = pH 7.4, read-out: (Ki) nM (pH 7.4)

Row | SMILES | Ki [1, 3] | Ki [1, 4] | Ki ([1]; (Ki) nM (pH 5.5), pH 5.5) | Ki ([1]; (Ki) nM (pH 7.4), pH 7.4) | inhibition of static allodynia (paw withdrawal threshold) [2]
1 | Nc1nc(OCC(F)F)nc2c1ncn2[C@@H]1O[C@H](CO)[C@@H](O)[C@H]1O [Compound 2] | 17 nM | 780 nM | – | – | –
2 | Nc1nc(OCC2CC2)nc2c1ncn2[C@@H]1O[C@H](CO)[C@@H](O)[C@H]1O [Compound 3] | 39 nM | 670 nM | – | – | –
3 | CCCCOc1nc(N)c2ncn([C@@H]3O[C@H](CO)[C@@H](O)[C@H]3O)c2n1 [Compound 4] | 11 nM | 280 nM | – | – | –
4 | CCCCCCOc1nc(N)c2ncn([C@@H]3O[C@H](CO)[C@@H](O)[C@H]3O)c2n1 [Compound 5] | 3 nM | 1500 nM | – | – | –
5 | Nc1nc(Oc2ccccc2)nc2c1ncn2[C@@H]1O[C@H](CO)[C@@H](O)[C@H]1O [Compound 6, 2-phenoxyadenosine] | 71 nM | 2500 nM | – | – | –
6 | N#Cc1ccc(Oc2nc(N)c3ncn([C@@H]4O[C@H](CO)[C@@H](O)[C@H]4O)c3n2)cc1 [Compound 7] | 4 nM | 1300 nM | – | – | –
7 | Nc1nc(Oc2cccc(-c3ccccc3)c2)nc2c1ncn2[C@@H]1O[C@H](CO)[C@@H](O)[C@H]1O [Compound 8] | 0.7 nM | 620 nM | – | – | –
8 | Nc1nc(Oc2cc(F)ccc2F)nc2c1ncn2[C@@H]1O[C@H](CO)[C@@H](O)[C@H]1O [Compound 9] | 16 nM | 2500 nM | – | – | –
9 | Nc1nc(Oc2ccc(F)cc2F)nc2c1ncn2[C@@H]1O[C@H](CO)[C@@H](O)[C@H]1O [Compound 10] | 16 nM | 6400 nM | – | – | –
10 | Nc1nc(Oc2ccc(F)c(F)c2)nc2c1ncn2[C@@H]1O[C@H](CO)[C@@H](O)[C@H]1O [Compound 11] | 63 nM | 3300 nM | – | – | –
11 | Nc1nc(Oc2cc(F)cc(F)c2F)nc2c1ncn2[C@@H]1O[C@H](CO)[C@@H](O)[C@H]1O [Compound 12] | 46 nM | 5900 nM | – | – | –
12 | Cc1cc(Oc2nc(N)c3ncn([C@@H]4O[C@H](CO)[C@@H](O)[C@H]4O)c3n2)ccc1F [Compound 13] | 43 nM | 3100 nM | – | – | –
13 | Cc1ccccc1Oc1nc(N)c2ncn([C@@H]3O[C@H](CO)[C@@H](O)[C@H]3O)c2n1 [Compound 14] | – | 22000 nM | – | – | –
14 | Nc1nc(Oc2cccc(Br)c2)nc2c1ncn2[C@@H]1O[C@H](CO)[C@@H](O)[C@H]1O [Compound 15] | 35 nM | 590 nM | – | – | –
15 | Cc1ccc(Oc2nc(N)c3ncn([C@@H]4O[C@H](CO)[C@@H](O)[C@H]4O)c3n2)cc1 [Compound 16] | 3.4 nM | 720 nM | – | – | –
16 | Nc1nc(Oc2ccc3c(c2)CCC3)nc2c1ncn2[C@@H]1O[C@H](CO)[C@@H](O)[C@H]1O [Compound 17] | 12 nM | 760 nM | – | – | –
17 | CC(C)c1cccc(Oc2nc(N)c3ncn([C@@H]4O[C@H](CO)[C@@H](O)[C@H]4O)c3n2)c1 [Compound 18] | 16 nM | 560 nM | – | – | –
18 | CNc1nc(N)c2ncn([C@@H]3O[C@H](CO)[C@@H](O)[C@H]3O)c2n1 [Compound 19] | – | 1360 nM | – | – | –
19 | CN(C)c1nc(N)c2ncn([C@@H]3O[C@H](CO)[C@@H](O)[C@H]3O)c2n1 [Compound 21] | – | 13300 nM | – | – | –

Row | SMILES | Ki [1, 3] | Ki [1, 4] | Ki ([1]; (Ki) nM (pH 5.5), pH 5.5) | Ki ([1]; (Ki) nM (pH 7.4), pH 7.4) | inhibition of static allodynia (paw withdrawal threshold) [2]
20 | CC[C@@H](C)Nc1nc(N)c2ncn(C3OC(CO)C(O)C3O)c2n1 (some centres unmarked) [Compound 22] | 33 nM | 510 nM | – | – | –
21 | CC[C@H](C)Nc1nc(N)c2ncn(C3OC(CO)C(O)C3O)c2n1 (some centres unmarked) [Compound 23] | 29 nM | 1400 nM | – | – | –
22 | CCCCCCNc1nc(N)c2ncn([C@@H]3O[C@H](CO)[C@@H](O)[C@H]3O)c2n1 [Compound 24] | 0.7 nM | 290 nM | – | – | –
23 | Nc1nc(NC2CC3CCC2C3)nc2c1ncn2[C@@H]1O[C@H](CO)[C@@H](O)[C@H]1O (some centres unmarked) [Compound 25] | 5.5 nM | 120 nM | – | – | –
24 | Nc1nc(Nc2ccccc2)nc2c1ncn2[C@@H]1O[C@H](CO)[C@@H](O)[C@H]1O [Compound 26, 2-phenylamino adenosine] | 5 nM | 160 nM | – | – | –
25 | COc1ccc(Nc2nc(N)c3ncn([C@@H]4O[C@H](CO)[C@@H](O)[C@H]4O)c3n2)cc1 [Compound 27, 2-(4-methoxyphenylamino) adenosine] | 3 nM | 55 nM | – | – | –
26 | Nc1nc(Nc2ccc(F)cc2)nc2c1ncn2[C@@H]1O[C@H](CO)[C@@H](O)[C@H]1O [Compound 28] | 10 nM | 200 nM | – | – | –
27 | Nc1nc(NC2CCCC2)nc2c1ncn2[C@@H]1O[C@H](CO)[C@@H](O)[C@H]1O [Compound 29] | 2 nM | 420 nM | – | – | –
28 | Nc1nc(NC2CCCCC2)nc2c1ncn2[C@@H]1O[C@H](CO)[C@@H](O)[C@H]1O [Compound 30, 2-cyclohexylamino adenosine] | 0.4 nM | 1000 nM | – | – | –
29 | CC(C)CCN(C)c1nc(N)c2ncn([C@@H]3O[C@H](CO)[C@@H](O)[C@H]3O)c2n1 [Compound 31] | 26 nM | 4000 nM | – | – | –
30 | Nc1nc(OCC2CCCC2)nc2c1ncn2[C@@H]1O[C@H](CO)[C@@H](O)[C@H]1O [Compound 32] | 0.2 nM | 200 nM | – | – | –
31 | CCS(=O)(=O)c1nc(N)c2ncn([C@@H]3O[C@H](CO)[C@@H](O)[C@H]3O)c2n1 [Compound 33] | 100 nM | 39000 nM | – | – | –
32 | Nc1nc(OCCO)nc2c1ncn2[C@@H]1O[C@H](CO)[C@@H](O)[C@H]1O [Compound 34, 2-(β-hydroxyethoxy)-adenosine] | 4 nM | 203 nM | – | – | –
33 | Nc1nc(OC2CC(F)(F)C2(F)F)nc2c1ncn2[C@@H]1O[C@H](CO)[C@@H](O)[C@H]1O (some centres unmarked) [Compound 35] | 11 nM | 220 nM | – | – | –
34 | N#Cc1nc(N)c2ncn([C@@H]3O[C@H](CO)[C@@H](O)[C@H]3O)c2n1 [Compound 38] | 25 nM | 175 nM | – | – | –
35 | NC(=O)c1nc(N)c2ncn([C@@H]3O[C@H](CO)[C@@H](O)[C@H]3O)c2n1 [Compound 39] | 23 nM | 610 nM | – | – | –
36 | CN(C)c1ncnc2c1ncn2[C@@H]1O[C@H](CO)[C@@H](O)[C@H]1O [Compound 41] | – | – | 42 nM | 450000 nM | –
37 | CC(C)=CCNc1ncnc2c1ncn2[C@@H]1O[C@H](CO)[C@@H](O)[C@H]1O [Compound 42] | – | – | 91.5 nM | 8600 nM | –
38 | CN(Cc1ccccc1)c1ncnc2c1ncn2[C@@H]1O[C@H](CO)[C@@H](O)[C@H]1O [Compound 43] | 7 nM | 18500 nM | – | – | –

Row | SMILES | Ki [1, 3] | Ki [1, 4] | Ki ([1]; (Ki) nM (pH 5.5), pH 5.5) | Ki ([1]; (Ki) nM (pH 7.4), pH 7.4) | inhibition of static allodynia (paw withdrawal threshold) [2]
39 | CN(Cc1cccc(Br)c1)c1ncnc2c1ncn2[C@@H]1O[C@H](CO)[C@@H](O)[C@H]1O [Compound 44] | 29 nM | 7500 nM | – | – | –
40 | CN(Cc1cccc(C(F)(F)F)c1)c1ncnc2c1ncn2[C@@H]1O[C@H](CO)[C@@H](O)[C@H]1O [Compound 45] | 3.8 nM | 20000 nM | – | – | –
41 | OC[C@H]1O[C@@H](n2cnc3c(N4CCNCC4)ncnc32)[C@H](O)[C@@H]1O [Compound 46] | 38 nM | 5000 nM | – | – | –
42 | COCCN(C)c1ncnc2c1ncn2[C@@H]1O[C@H](CO)[C@@H](O)[C@H]1O [Compound 47] | 13 nM | 13000 nM | – | – | –
43 | OC[C@H]1O[C@@H](n2cnc3c(OCC4CCCC4)ncnc32)[C@H](O)[C@@H]1O [Compound 48] | 140 nM | 21000 nM | – | – | –
44 | CC(C)NC(=O)[C@H]1O[C@@H](n2cnc3c(N)ncnc32)[C@H](O)[C@@H]1O [Compound 49] | 5 nM | 1930 nM | – | – | –
45 | NC(=O)[C@H]1O[C@@H](n2cnc3c(N)ncnc32)[C@H](O)[C@@H]1O [Compound 50] | 9 nM | 270 nM | – | – | –
46 | CNc1ncnc2c1ncn2[C@@H]1O[C@H](C(=O)NC(C)C)[C@@H](O)[C@H]1O [Compound 51] | 188 nM | 2440 nM | – | – | –
47 | CC(C)CCNc1ncnc2c1ncn2[C@@H]1O[C@H](C(=O)NC(C)C)[C@@H](O)[C@H]1O [Compound 52] | 39 nM | 1300 nM | – | – | –
48 | COc1nc(N)c2ncn([C@@H]3O[C@H](C(=O)Nc4ccccc4)[C@@H](O)[C@H]3O)c2n1 [Compound 53] | 230 nM | 26100 nM | – | – | –
49 | CCCCCCNc1nc(N)c2ncn([C@@H]3O[C@H](C(=O)NCCCC)[C@@H](O)[C@H]3O)c2n1 [Compound 54] | 0.3 nM | 540 nM | – | – | –
50 | CCCC(=O)NC[C@H]1O[C@@H](n2cnc3c(N)ncnc32)[C@H](O)[C@@H]1O [Compound 55] | 145 nM | 16900 nM | – | – | –
51 | CCNC(=O)NC[C@H]1O[C@@H](n2cnc3c(N)ncnc32)[C@H](O)[C@@H]1O [Compound 56] | 40 nM | 6570 nM | – | – | –
52 | CN(C)c1nc(NC2CCCCC2)nc2c1ncn2[C@@H]1O[C@H](CO)[C@@H](O)[C@H]1O [Compound 57] | 2.6 nM | 18000 nM | – | – | –
53 | COc1nc(NCc2ccccc2)c2ncn([C@@H]3O[C@H](CO)[C@@H](O)[C@H]3O)c2n1 [Compound 58] | 4.5 nM | 6100 nM | – | – | –
54 | Cc1nc2c(N)nc(NC3CCCCC3)nc2n1[C@@H]1O[C@H](CO)[C@@H](O)[C@H]1O [Compound 59] | 31 nM | 3900 nM | – | – | –
55 | Cc1nc2c(N)nc(NC3CCCC3)nc2n1[C@@H]1O[C@H](CO)[C@@H](O)[C@H]1O [Compound 60] | 49 nM | 2400 nM | – | – | –
56 | CCCCCCNc1nc(N)c2nc(C)n([C@@H]3O[C@H](CO)[C@@H](O)[C@H]3O)c2n1 [Compound 61] | 130 nM | 4800 nM | – | – | –
57 | NCC1(CC(=O)O)CCCCC1 [gabapentin, reference compound] | – | – | – | – | inhibit static allodynia
